Results on 80 molecules are retold here after the METLIN SMRT retention time set (Domingo-Almenara et al. 2019).

Molecules are shown by their SMILES.

The nature of the data set: gradient 5% acetonitrile 3 min, to 50% in 2 min, to 85% in 15 min, held 3 min, 100 µL/min. As to conditions: column: Zorbax Extend-C18 2.1 x 50 mm; eluents: water / acetonitrile, 0.1% formic acid. Put shortly: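 The system's dead and dwell volumes were 40 μL and 900 μL, with a Zorbax Extend-C18 column (2.1 × 50 mm, 1.8 μm) run at 100 μL/min in water and acetonitrile containing 0.1% formic acid each. Pure standards were analyzed in mixtures of ~100 molecules by HPLC–quadrupole time-of-flight mass spectrometry in positive and negative ionization mode. Retention time was assigned from computationally picked, manually inspected adduct peaks.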
`CCOC(=O)CSc1nc2ccccc2[nH]1` registered an RP-LC retention time of 596 s.
`CC(Oc1cccc(Cl)c1)c1nc(-c2ccc3ncn(C)c3c2)no1` (stereo not given) came in with an RP-LC retention time of 827 s.
The result for `Cc1cc(=O)n(CC(=O)NCc2ccccc2Cl)c(N)n1` reads 603 s.
Turning to `CCOc1ccc(C2=NC3(CCN(C(C)C)CC3)NC(c3cccc(OC)c3O)C2)cc1` (stereo not given), the RP-LC retention time came out at 608 s.
`CCCn1c(=O)c2cc(C(=O)N3CCN(c4ccc(OC)cc4)CC3)nn2c2ccccc21` returned an RP-LC retention time of 862 s.
Turning to `Cc1cc(C(=O)N2CCC3(CC2)CC(O)CCO3)c(C)o1` (stereo not given), the RP-LC retention time came to 624 s.
As for `O=C(c1ccccc1)N1C[C@H]2CNC(=O)[C@]23CCCC[C@@H]13`, the figure is 662 s; as for `CCc1ccc(S(=O)(=O)c2cnc(N3CCN(c4ccccc4)CC3)nc2N)cc1`, 1140 s.
The result for `COc1ccccc1CNC(=O)C1(c2ccc(NC(C)=O)cc2)CCC1` reads 736 s; that for `C=CCN1C(=O)C(C)(C)COc2cc(NS(=O)(=O)C3CCCCC3)ccc21`, 932 s; that for `O=C1CCCN1CCCN(CC(=O)N1CCNCC1)C(=O)c1ccc(Cl)cc1`, 586 s.
The result for `CSc1ncn(-c2nc(NC(C)C)nc(N(C)C)n2)n1` reads 874 s.
For the molecule `CCCN1CCN(c2ncc3c(n2)CCN(Cc2cccc(Br)c2)C3)CC1`, the RP-LC retention time amounted to 565 s.
The result for `Cc1ccccc1NC(=O)CN1C(=O)NC2(CCCCC2)C1=O` reads 730 s; that for `Cc1nc(CC(=O)Nc2nc(-c3ccc(C)c(C)c3)cs2)cs1`, 989 s.
As for `Cc1nnc(NC(=O)CCc2csc(NC(=O)NC3CCCCC3)n2)s1`, the figure is 682 s; as for `COc1ccc(OC)c(Nc2c(-c3ccc(SC)cc3)nc3cnccn23)c1`, 923 s; as for `Cn1nc(-c2nnc(-c3ccccc3Cl)o2)c2c1CCN(C(=O)Nc1ccccc1)C2`, 849 s.
As for `CCOc1ccc(NC(=O)c2cnc(-c3ccc(OC)cc3)nc2-c2ccncc2)cc1`, the figure is 875 s; as for `Cc1cc(NC(=O)Nc2cc(Cl)ccc2C)no1`, 972 s.
In turn, `COCCN1CCn2cc(S(=O)(=O)Nc3cc(C)cc(C)c3)cc2C1=O` came in with an RP-LC retention time of 745 s.
For `CCCNC(=O)C1CCCN(c2ccc(SCC(=O)Nc3cccc(SC)c3)nn2)C1` (stereo not given), the RP-LC retention time amounted to 693 s.
As for `Fc1ccc(Cn2cc(-c3noc(C4CCCC4)n3)nn2)cc1`, the figure is 991 s.
As for `COc1ccccc1-c1nc(Cn2nnc(-c3nc(-c4cccs4)no3)c2C)c(C)o1`, the figure is 1050 s.
The result for `CC(=O)c1sc(NC(=O)c2ccccc2[N+](=O)[O-])nc1C` reads 679 s; that for `O=C1CC(c2ccc(C(=O)O)cc2)c2scc(-c3cccc(F)c3)c2N1` (stereo not given), 823 s.
Consider `Nc1nnc(Cc2ccc3c(c2)OCCO3)o1`, for which the RP-LC retention time is 589 s.
The result for `COc1ccc(NC(=O)c2cnc(N3CCN(c4ccccc4F)CC3)nc2N)cc1` reads 684 s; that for `COc1ccc(S(=O)(=O)Cc2nc(-c3ccccc3Cl)no2)cc1`, 966 s; that for `COc1ccccc1NC(=O)c1cnc2c(c1)c(=O)n(C)c(=O)n2-c1ccc(C)cc1`, 944 s.
`O=C(Nc1nnc(C2CC(=O)N(c3ccc(F)cc3)C2)o1)c1cccc(F)c1` (stereo not given) yielded an RP-LC retention time of 730 s.
As to `Cc1ccc(-c2noc(Cn3ncn4nc(-c5cc(C)ccc5C)cc4c3=O)n2)cc1`, the RP-LC retention time turned out to be 878 s.
As for `Cc1cccc(-c2noc(Cc3nnc(-c4cc(C)cc(C)c4)o3)n2)c1`, the figure is 842 s; as for `CC(C)c1c(C(=O)O)nnn1Cc1ccccc1`, 720 s; as for `CC(=O)Nc1ccc(C(=O)NC2CCN(c3cc(N4CCCC4)cnn3)C2)cc1` (stereo not given), 598 s.
On to `CCOc1ccccc1-c1noc(Cn2cnc3c(cnn3-c3ccc(CC)cc3)c2=O)n1`, for which the RP-LC retention time came out at 1170 s.
As for `CC(C)c1noc(C2(NC(=O)CCC3CCCC3)CCCCC2)n1`, the figure is 1120 s; as for `O=C(Nc1ccccn1)C1CCCN(c2ncnc3c2nc2n3CCCCC2)C1` (stereo not given), 675 s; as for `CCCn1c(CCNC(=O)c2ccc(C#N)cc2)nc2cccnc21`, 662 s.
The result for `Cc1ccc(C)c2c(=O)c3c([nH]c12)CCN(CC(=O)Nc1ccc(F)cc1)C3` reads 634 s; that for `CCn1cc(-c2ccc(C)cc2)cc1C(=O)NCCCN1CCCC1=O`, 856 s.
As for `O=C(CSc1nccn(-c2ccc(F)c(F)c2)c1=O)NCc1ccccc1Cl`, the figure is 816 s; as for `CC(=O)Nc1cccc(-c2nc(-c3ccc4c(c3)oc(=O)n4C)no2)c1`, 819 s.
`CC1=C(c2ccc(Cl)cc2)S(=O)(=O)N=C1N1CCCN(C(=O)NCC(C)C)CC1` came in with an RP-LC retention time of 845 s.
`COc1ccc(NC(=O)c2cc(NC(=O)C3CCC3)cc3nc(C)ccc23)cc1OC` gave an RP-LC retention time of 640 s.
`O=C(NCCC1=CCCCC1)C1CCCN(c2cnc3nccnc3c2)C1` (stereo not given) registered an RP-LC retention time of 766 s.
Molecule `CCc1ccc(S(=O)(=O)c2cnc(N3CCN(c4ccccc4F)CC3)nc2N)cc1` returned an RP-LC retention time of 1200 s.
The result for `Cc1cc(NC(=O)CCn2cnc3ccccc3c2=O)sn1` reads 619 s; that for `COc1cc([C@@H]2c3cc4c(cc3[C@H](O)[C@@H](CO)[C@@H]2C(=O)NCc2ccc(F)cc2)OCO4)cc(OC)c1OC`, 720 s.
`Cc1ccc(-c2noc(-c3cccc(S(=O)(=O)N4CCOCC4)c3)n2)cc1` displayed an RP-LC retention time of 1120 s.
The result for `Cc1ccc(CNC(=O)Cn2cccc(-c3nc(-c4ccc(Br)cc4)no3)c2=O)cc1` reads 1030 s; that for `Cc1cccc(NC(=O)c2cccn2Cc2noc(C3CC3)n2)c1C`, 954 s.
As for `Cc1cccc(N(C(=O)c2cnc3n(c2=O)CCS3)C2CCCCC2)c1`, the figure is 782 s; as for `CC(C)c1ccc(S(=O)(=O)N2CCC(c3ccncc3)CC2)cc1`, 749 s.
The result for `CCn1c(C)c(-c2nc(C3CC3)no2)c(S(=O)(=O)N2CCC(C)CC2)c1C` reads 904 s; that for `CC1CCCCN1CCNC(=O)c1c2c(cn(-c3ccc(Cl)cc3)c1=O)C(=O)CC(C)(C)C2` (stereo not given), 710 s; that for `O=C(c1ccn[nH]1)N1CC(F)(F)C[C@H]1c1nc(C2CC2)no1`, 712 s.
Take `COc1cc(CN2CCC[C@H]2c2nc(C3CCOCC3)n[nH]2)cc(OC)c1`: the RP-LC retention time stood at 593 s.
The result for `CCc1ccc(NC(=O)C2CCCN(S(=O)(=O)c3cc(-c4noc(CC)n4)cs3)C2)cc1` (stereo not given) reads 1110 s.
The result for `Cc1ccccc1-c1nnc(CSc2ccc(NC(=O)C3CC3)cc2)o1` reads 933 s; that for `CCCN1CCN(C(=O)CN2CCN(C(=O)Nc3ccc(Br)cc3)CC2=O)CC1`, 597 s; that for `COc1ccc(Cc2nc(-c3cccc(-c4ccn[nH]4)c3)no2)c(Cl)c1`, 1000 s.
The result for `O=C(N[C@@H]1CN(Cc2cc(Cl)ccc2F)C[C@H]1CO)C1CCC1` reads 610 s; that for `CCc1ccc(N2C(=O)C3N=NN(Cc4nc(-c5ccc(Br)cc5)no4)C3C2=O)cc1` (stereo not given), 1130 s.
Regarding `Cc1cccc2nnc(N3CCN(C(=O)c4ccc(Cl)s4)CC3)n12`, the RP-LC retention time came to 701 s.
For the molecule `CCOc1ccccc1NC(=O)N1C[C@@H](F)C[C@H]1C(=O)N1CCCCC1`, the RP-LC retention time was determined as 772 s.
The result for `Cn1ccc2cc(S(=O)(=O)N3CCCC(C(=O)NCCCN4CCc5ccccc5C4)C3)ccc21` (stereo not given) reads 685 s.
As for `COCCNC(=O)c1cc(-c2ccncc2)cn1Cc1ccc(C)cc1`, the figure is 640 s.
As for `O=C(N[C@H]1C[C@@H]2C[C@H]1CN2C(=O)Cc1c(F)cccc1Cl)c1cccs1`, the figure is 710 s; as for `COc1ccc(-c2nc3ccccn3c2Nc2ccccc2C)cc1`, 721 s.
Molecule `O=C(Cc1csc2nc(-c3ccccc3)cn12)NC1CCCCCC1` returned an RP-LC retention time of 808 s.
The result for `CCOc1ccc(N2C(=O)C3N=NN(Cc4nc(-c5cccc(C(F)(F)F)c5)no4)C3C2=O)cc1` (stereo not given) reads 1080 s; that for `C=CCN=C(NC#N)SC`, 696 s.
The result for `CCc1ccc(N2CCn3c2nc2c3c(=O)n(CC(=O)O)c(=O)n2C)cc1` reads 785 s; that for `COCCC(=O)Nc1c(-c2ccccc2)nc2sc(N3CCCCC3)nn12`, 751 s; that for `O=c1n(Cc2ccc(F)cc2)nc2c(S(=O)(=O)N3CCc4ccccc4C3)cccn12`, 938 s.
`COc1ccc(N2CCN(C(=O)c3[nH]c(C)c(S(=O)(=O)N4CCCC4)c3C)CC2)cc1` displayed an RP-LC retention time of 748 s.
Regarding `CCOc1cc(C2NC(=O)c3[nH]nc(-c4cccc(OC)c4)c32)ccc1O` (stereo not given), the RP-LC retention time is 669 s.
The result for `Cc1ccsc1C1C2=C(CC(C)(C)CC2=O)OC2=C1C(=O)CC(C)(C)C2` reads 1090 s; that for `COc1ccc(-c2nnc(-c3ccccc3)o2)cc1S(=O)(=O)NC(C)(C)C`, 955 s.
